In article PMC6743422, “Preclinical disposition of MGS0274 besylate, a prodrug of a potent group II metabotropic glutamate receptor agonist MGS0008 for the treatment of schizophrenia” (Pharmacology Research & Perspectives, 2019):
Where “and” joins values, the source holds several entries; their conditions need not be identical. Equal entries are not always repeated. Entries after “also recorded” stand apart in the source; their conditions may differ.

How the values were obtained:
[1] = system: rat cryopreserved hepatocytes; experiment: In vitro metabolite profiling in rat cryopreserved hepatocytes; type: in vitro ADME; details: rat hepatocytes
Method: Rat, monkey, or human cryopreserved hepatocytes in Leivovitz L‐15 medium at 0.5 million cells/mL were incubated at 37°C for 1 hour with [^14C]MGS0274 besylate at 10 μmol/L. The reaction was terminated by adding 10% w/v trichloroacetic acid solution, and the resultant mixture was centrifuged. Aliquots of the supernatant were subjected to bioanalysis using high‐performance liquid chromatography equipped with radiochemical flow detection (RI‐HPLC) (see Table S1‐B). Aliquots of the supernatant from unlabeled incubation samples and authentic standards were also injected into a liquid chromatography‐mass spectrometry (LC‐MS) system under the same chromatographic conditions to compare their chromatographic retention times and mass spectral data (see Table S1‐B).

[2] = Pharmacokinetics of MGS0008 in monkeys (intravenous or oral); type: in vivo, cynomolgus monkey; details: fed male monkeys; for AUC(0-t): read-out: AUC0–24h
Method: The pharmacokinetic profiles of MGS0008 and MGS0274 were investigated in fasted male Wistar rats (n = 3) and fed male cynomolgus monkeys (n = 4). Monkeys had been given 60 g of a primate diet (PS‐A; Oriental Yeast, Tokyo, Japan) one hour before administration. For intravenous administration, MGS0008 was dissolved in saline (pH7.4) and administered to rats (3 mg/kg) and monkeys (1 mg/kg). Blood samples were collected from the tail vein (rats) or the forelimb cephalic vein (monkeys) into tubes containing EDTA‐2K at 5, 15, and 30 minutes and at 1, 2, 4, 8, and 24 hours postdose for both species, and an additional sample was collected at 12 hours postdose for monkeys. Urine samples were collected until 48 hours at 24‐hour intervals (rats) or at 0‐ to 8‐hour, 8‐ to 24‐hour, and 24‐ to 48‐hour intervals (monkeys). The plasma or urine samples was mixed with acetonitrile/methanol (9:1, v/v) containing [^13C2 ^15N]MGS0008 and centrifuged. Aliquots of the supernatant were subjected to bioanalysis using LC‐MS/MS (see Table S1‐E). For oral administration, MGS0008 was dissolved in distilled water (rats) or 0.5% w/v methylcellulose 400 (monkeys) and administered to rats (3 mg/kg) and monkeys (1 mg/kg). MGS0274 besylate was suspended in 0.5% w/v methylcellulose 400 containing 0.1% v/v Tween 80 and administered to monkeys at a dose of 2.89 mg/kg (1‐mg equivalent of MGS0008/kg). Blood samples were collected from the tail vein (rats) or the forelimb cephalic vein (monkeys) into tubes containing EDTA‐2K at 30 minutes, 1, 1.5, 2, 4, 6, 8, and 24 hours postdose for rats, and 30 minutes, 1, 2, 4, 8, 12, and 24 hours postdose for monkeys. The plasma samples were mixed with acetonitrile/methanol (9:1, v/v) containing internal standards ([^13C2 ^15N]MGS0008 and MGS0039) and centrifuged. Aliquots of the supernatant were subjected to bioanalysis using LC‐MS/MS (see Tables S1‐E and F). In the study examining the tissue distribution of MGS0008 in rats (3 mg/kg), blood samples were collected from the posterior vena cava into tubes containing EDTA‐2K under isoflurane anesthesia at 1.5, 4, 6, or 24 hours postdose. Then, the animals were euthanized by exsanguination from the abdominal aorta; cerebrospinal fluid (CSF) samples were drawn from the spinal cord space in each animal. The plasma or CSF was mixed with acetonitrile/methanol (9:1, v/v) containing [^13C2 ^15N]MGS0008 and centrifuged. Aliquots of the supernatant were subjected to bioanalysis using LC‐MS/MS (see Table S1‐E).
The plasma concentration‐time profiles of MGS0008 and MGS0274 were analyzed using a non‐compartmental analysis method with pharmacokinetic analysis software Phoenix® WinNonlin® 6.2 or later (Certara, Princeton, NJ).

[3] = Pharmacokinetics after oral MGS0274 besylate in monkeys; type: in vivo, cynomolgus monkey; details: fed male monkeys, MGS0274 besylate oral 2.89 mg/kg
Method: The pharmacokinetic profiles of MGS0008 and MGS0274 were investigated in fasted male Wistar rats (n = 3) and fed male cynomolgus monkeys (n = 4). Monkeys had been given 60 g of a primate diet (PS‐A; Oriental Yeast, Tokyo, Japan) one hour before administration. For intravenous administration, MGS0008 was dissolved in saline (pH7.4) and administered to rats (3 mg/kg) and monkeys (1 mg/kg). Blood samples were collected from the tail vein (rats) or the forelimb cephalic vein (monkeys) into tubes containing EDTA‐2K at 5, 15, and 30 minutes and at 1, 2, 4, 8, and 24 hours postdose for both species, and an additional sample was collected at 12 hours postdose for monkeys. Urine samples were collected until 48 hours at 24‐hour intervals (rats) or at 0‐ to 8‐hour, 8‐ to 24‐hour, and 24‐ to 48‐hour intervals (monkeys). The plasma or urine samples was mixed with acetonitrile/methanol (9:1, v/v) containing [^13C2 ^15N]MGS0008 and centrifuged. Aliquots of the supernatant were subjected to bioanalysis using LC‐MS/MS (see Table S1‐E). For oral administration, MGS0008 was dissolved in distilled water (rats) or 0.5% w/v methylcellulose 400 (monkeys) and administered to rats (3 mg/kg) and monkeys (1 mg/kg). MGS0274 besylate was suspended in 0.5% w/v methylcellulose 400 containing 0.1% v/v Tween 80 and administered to monkeys at a dose of 2.89 mg/kg (1‐mg equivalent of MGS0008/kg). Blood samples were collected from the tail vein (rats) or the forelimb cephalic vein (monkeys) into tubes containing EDTA‐2K at 30 minutes, 1, 1.5, 2, 4, 6, 8, and 24 hours postdose for rats, and 30 minutes, 1, 2, 4, 8, 12, and 24 hours postdose for monkeys. The plasma samples were mixed with acetonitrile/methanol (9:1, v/v) containing internal standards ([^13C2 ^15N]MGS0008 and MGS0039) and centrifuged. Aliquots of the supernatant were subjected to bioanalysis using LC‐MS/MS (see Tables S1‐E and F). In the study examining the tissue distribution of MGS0008 in rats (3 mg/kg), blood samples were collected from the posterior vena cava into tubes containing EDTA‐2K under isoflurane anesthesia at 1.5, 4, 6, or 24 hours postdose. Then, the animals were euthanized by exsanguination from the abdominal aorta; cerebrospinal fluid (CSF) samples were drawn from the spinal cord space in each animal. The plasma or CSF was mixed with acetonitrile/methanol (9:1, v/v) containing [^13C2 ^15N]MGS0008 and centrifuged. Aliquots of the supernatant were subjected to bioanalysis using LC‐MS/MS (see Table S1‐E). The plasma concentration‐time profiles of MGS0008 and MGS0274 were analyzed using a non‐compartmental analysis method with pharmacokinetic analysis software Phoenix® WinNonlin® 6.2 or later (Certara, Princeton, NJ).

[4] = cynomolgus monkey, MGS0008 intravenous 1 mg/kg, plasma
[5] = cynomolgus monkey, MGS0008 oral 1 mg/kg, plasma
[6] = cynomolgus monkey, plasma, compound monitored MGS0274, mean of two animals

Row | SMILES | further metabolism of MGS0008 in hepatocytes [1] | concentration at 24 h ([2]; cynomolgus monkey, plasma, MGS0008 intravenous 1 mg/kg, below lower limit of quantification) [ng/mL] | clearance ([2]; cynomolgus monkey, plasma, MGS0008 intravenous 1 mg/kg, mean ± SD (n = 4), read-out: CLtotal (converted)) [mL/min/kg] | Vd ([2]; cynomolgus monkey, plasma, MGS0008 intravenous 1 mg/kg, mean ± SD (n = 4), read-out: Vdss) [L/kg] | bioavailability ([2]; cynomolgus monkey, plasma, MGS0008 oral 1 mg/kg, AUC0-24h oral / AUC0-24h intravenous × 100) [%] | CL renal ([2]; cynomolgus monkey, urine and plasma, MGS0008 intravenous 1 mg/kg) [mL/min/kg] | half-life [2, 4] [h] | AUC(0-t) [2, 4] [ng·h/mL] | Cmax [2, 5] [ng/mL] | Tmax [2, 5] [h] | AUC(0-t) [2, 5] [ng·h/mL] | vomiting ([2]; MGS0008 intravenous 1 mg/kg) | Urinary excretion (unchanged form) ([2]; MGS0008 intravenous 1 mg/kg, within 48 hours, % of administered dose, 1 mg/kg) | Cmax [3, 6] [ng/mL] | Tmax [3, 6] [h] | AUC(0-t) ([3]; cynomolgus monkey, plasma, compound monitored MGS0274, mean of two animals, read-out: AUC0–24h of MGS0274) [ng·h/mL] | vomiting [3] | MGS0274 in plasma ([3]; lower limit of quantification 1 ng/mL, 2.89 mg/kg)
1 | N[C@]1(C(=O)O)[C@H]2[C@@H](C[C@@H]1F)[C@@H]2C(=O)O [MGS0008, (1S,2S,3S,5R,6S)‐2‐amino‐3‐fluorobicyclo[3.1.0]hexane‐2,6‐dicarboxylic acid] | no metabolites | < 3 | 2.15 | 0.181 ± 0.0214 | 3.8 ± 2.8 | 2.07 | 1.48 ± 0.0435 | 7830 ± 776 | 20.5 ± 11.5 | 9 ± 10 | 281 ± 177 | three of the four monkeys experienced transient vomiting | 96.4% and 96.4 ± 7.51% | – | – | – | – | –
2 | CC(C)[C@@H]1CC[C@@H](C)C[C@H]1OC(=O)O[C@@H](C)OC(=O)[C@H]1[C@@H]2C[C@H](F)[C@@](N)(C(=O)O)[C@@H]21.O=S(=O)(O)c1ccccc1 [MGS0274 besylate, (1S,2S,3S,5R,6S)‐2‐amino‐3‐fluoro‐6‐({(1S)‐1‐[({[(1R,2S,5R)‐5‐methyl‐2‐(propan‐2‐yl)cyclohexyl]oxy}carbonyl)oxy]ethoxy}carbonyl)bicyclo[3.1.0]hexane‐2‐carboxylic acid monobenzenesulfonate] | – | – | – | – | – | – | – | – | – | – | – | – | – | 1.28 | 1 | 2.03 | two of the four monkeys experienced vomiting | barely detectable; also recorded: barely detected
